Laboratory results as given in patent US9597323B2, “Aminoester derivatives” (CHIESI FARMACEUTICI S.p.A., priority 2015, dated 2017).
pIC50, pKi: −log10 of the molar value. Read-outs that look alike come from different tables or passages of the source. Each block holds one compound with its values, some of them ahead of it.

Tests used:
[1] = target: T1, Human M3 receptor (Homo sapiens, UniProt P20309); assay: M3 Receptor radioligand binding assay; conditions: for pKi: calculated from IC50 by Cheng and Prusoff equation
T1 construct: purchased Perkin Elmer
Experimental: M3 Receptor Radioligand Binding Assay:
The assay is carried out in 96-well polypropylene plates in a volume of 250 μl. […] The final assay concentration of DMSO is 0.5% (v/v). The plates are sealed and incubated for 2 h at room temperature on an orbital shaker (slow speed). Membranes are harvested onto 96-well unifilter GF/C filter plates pre-treated with 0.5% polyethyleneimine (v/v), using a filter manifold, washed four times with 200 μl of assay buffer. The plates are dried before addition of 50 μl of microscint-0, sealed then read in a Trilux Microbeta scintillation counter. IC50 values are determined from competition curves using a non-linear curve fitting program. Ki values are calculated from IC50 values by the Cheng and Prusoff equation.

[2] = target: Human recombinant PDE4B2 (Homo sapiens, UniProt Q07343); assay: PDE4B2 HTRF assay; format: biochemical
Experimental: PDE4B2 activity is detected using the LANCE Ultra cAMP homogeneous time resolved fluorescence resonance energy transfer (TR-FRET) assay from Perkin Elmer. The assay is based on the competition between the europium (Eu) chelate-labeled cAMP tracer and sample cAMP for binding sites on cAMP-specific monoclonal antibodies (mAb) labelled with the ULight™ dye. The assay is carried out in 384-well low volume plates in a volume of 10 μl. Human recombinant PDE4B2 (80 pM) is incubated for 2 h with 3 nM cAMP in buffer containing 1×HBSS, 5 mM HEPES, 3 mM MgCl2, 0.1% BSA, pH 7.4 with or without test compounds. The enzymatic reactions are efficiently stopped by the addition of 500 μM IBMX present in the combined Stop/Detection buffer containing europium (Eu) chelate-labeled cAMP tracer and cAMP-specific monoclonal antibodies (mAb) labelled with the ULight™ dye. […] IC50 values are determined from competition curves using a non-linear curve fitting program.

[3] = test system: Cch-evoked bronchoconstriction; assay: Bronchospasm, percentage of inhibition (Cch-induced bronchoconstriction in rats); format: in vivo, rat; conditions: for inhibition at 16 h: 16 h after intratracheal administration of the sub-maximal inhibition dose; for sub-maximal inhibition Dose [inhibition at 1 h]: dose producing about 80% inhibition of the bronchospasm after 1 h, intratracheal
Experimental: Protocol of Bronchospasm-Percentage of Inhibition Animals Male CD Sprague Dawley rats (220-250 g) were purchased from Charles River Laboratories Italy (Calco, Lecco). Prior to use animals were acclimated for at least 5 days to the local vivarium conditions (room temperature: 20-24° C.; relative humidity: 40-70%), having free access to standard rat chow and softened tap water. All the procedures were performed in animal operating rooms according to ethical guidelines for the conduct of animal research (D. L.vo 116/92). […] Animals were anaesthetized with Urethane (1.2 g/kg, i.p.) and a laryngoscope was moved forward into the mouth to visualize the trachea and guide the insertion of the tip of a custom made small diameter cannula directly into the trachea and located 1-2 mm above the bifurcation. […] The target concentration was obtained by dilution of the DMSO stock in saline. Test compounds were instilled locally into the trachea in a volume of 125 μl. Experimental Procedure In order to assess the residual inhibitory activity of test compounds at 1 to 16 hours after their administration, rats were surgically prepared. In order to assess the Cch-induced bronchoconstriction in rats, the infusion of physiological solution was stopped and the bronchospastic agent injected into the jugular vein using the same cannula. Soon after washing the cannula with saline to ensure the complete administration of the bronchoconstrictor agent, the saline infusion was started again. Body temperature was kept constant at 37° C. by a heated blanket. The trachea was cannulated and the lungs were ventilated artificially with a small animal constant volume ventilator (rodent ventilator mod. 7025, Ugo Basile, Comerio, Varese, Italy) at a frequency of 80 strokes/min and at a tidal volume of 2.5 ml/kg. To avoid spontaneous breathing, the animals were injected intravenously (i.v.) with pancuronium bromide (2 mg/kg). Bronchoconstriction was induced by the i.v. injection of Cch 50 μg/kg. In control experiments, repeated injections of this dose produced reproducible short-lasting (1-2 min duration) bronchospasms. Bronchoconstriction, quantified as a reduction of tidal volume, was evaluated according to the method described by Konzett & Roessler in Konzett H. and Roessler R. (1940). Versuchanornungzu untersuchungen […]. Arch. Exp. Path. Pharmak.; 195:71-74, which is incorporated herein by reference in its entirety. Systemic blood pressure and changes in airway resistance were monitored with a digital pressure transducer connected to a bridge amplifier (PowerLab; Ugo Basile, Italy) and recorded using Chart 5 software (Ugo Basile, Italy). […] The effect of test compounds was expressed as % inhibition of Cch-evoked bronchoconstriction in time-matched, vehicle-treated, animals (controls).

[4] = test system: COPD patients; conditions: cited from earlier work
[5] = patients with severe disease, frequent exacerbations and mucus hypersecretion

T1 sequence (P20309 whole entry): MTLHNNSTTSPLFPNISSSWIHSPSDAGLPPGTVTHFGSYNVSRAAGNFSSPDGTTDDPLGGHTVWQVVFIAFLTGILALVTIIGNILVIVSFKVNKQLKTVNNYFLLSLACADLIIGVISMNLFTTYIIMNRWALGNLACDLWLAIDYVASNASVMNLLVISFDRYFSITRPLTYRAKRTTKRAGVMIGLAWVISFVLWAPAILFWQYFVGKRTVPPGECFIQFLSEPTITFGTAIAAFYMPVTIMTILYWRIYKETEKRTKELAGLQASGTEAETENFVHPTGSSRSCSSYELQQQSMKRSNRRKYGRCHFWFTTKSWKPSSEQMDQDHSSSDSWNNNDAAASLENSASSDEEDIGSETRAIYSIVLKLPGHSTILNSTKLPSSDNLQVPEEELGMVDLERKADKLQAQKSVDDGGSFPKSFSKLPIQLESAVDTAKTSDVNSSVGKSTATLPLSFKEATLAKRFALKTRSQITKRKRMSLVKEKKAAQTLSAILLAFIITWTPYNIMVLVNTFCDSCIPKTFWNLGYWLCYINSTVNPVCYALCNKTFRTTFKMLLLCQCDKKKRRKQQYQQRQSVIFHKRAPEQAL
Chain of Human recombinant PDE4B2 (Q07343 1-564 isoform Q07343-2): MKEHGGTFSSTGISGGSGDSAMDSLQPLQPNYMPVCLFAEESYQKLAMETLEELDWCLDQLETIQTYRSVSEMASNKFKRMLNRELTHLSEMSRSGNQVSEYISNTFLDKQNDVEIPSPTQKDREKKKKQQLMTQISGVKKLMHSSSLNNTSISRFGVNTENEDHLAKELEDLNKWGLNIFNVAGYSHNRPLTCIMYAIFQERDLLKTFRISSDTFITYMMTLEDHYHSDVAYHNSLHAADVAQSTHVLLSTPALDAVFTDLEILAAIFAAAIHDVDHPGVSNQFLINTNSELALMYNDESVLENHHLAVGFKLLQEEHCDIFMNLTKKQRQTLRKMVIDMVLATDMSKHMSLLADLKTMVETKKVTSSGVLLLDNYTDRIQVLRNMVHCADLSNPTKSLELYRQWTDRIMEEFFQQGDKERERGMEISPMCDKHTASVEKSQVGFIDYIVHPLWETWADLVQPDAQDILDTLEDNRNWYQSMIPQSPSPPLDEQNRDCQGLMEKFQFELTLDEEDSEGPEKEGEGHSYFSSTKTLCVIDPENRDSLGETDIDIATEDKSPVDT

Compound: COc1ccc([C@H](Cc2c(Cl)c[n+]([O-])cc2Cl)OC(=O)c2cccc(CNC(C(=O)OCC3CCN(C)CC3)c3ccccc3)c2)cc1OC (mixture of isomers) [Example 1, [(1S)-2-(3,5-dichloro-1-oxido-pyridin-1-ium-4-yl)-1-(3,4-dimethoxyphenyl)ethyl] 3-[[[2-[(1-methyl-4-piperidyl)methoxy]-2-oxo-1-phenyl-ethyl]amino]methyl]benzoate]
pIC50 ([1]; read-out: M3 IC50 activity): 8.00 to 9.00
pIC50 [2]: > 9.00

Compound: COc1ccc([C@H](Cc2c(Cl)c[n+]([O-])cc2Cl)OC(=O)c2ccc(CNC(C(=O)OCC3CCN(C)CC3)c3ccccc3)cc2)cc1OC (single isomer, unassigned) [Example 2]
pIC50 ([1]; read-out: M3 IC50 activity): 8.00 to 9.00
pIC50 [2]: 8.00 to 9.00

Compound: COc1ccc([C@H](Cc2c(Cl)c[n+]([O-])cc2Cl)OC(=O)c2cccc(CNC(C(=O)OCC3CCN(C)CC3)c3ccccc3)c2)cc1OC (stereo partly drawn) [Example 5, [(1S)-2-(3,5-dichloro-1-oxido-pyridin-1-ium-4-yl)-1-(3,4-dimethoxyphenyl)ethyl] 3-[[[2-[(1-methyl-4-piperidyl)-methoxy]-2-oxo-1-phenyl-ethyl]amino]methyl]benzoate]
pIC50 ([1]; read-out: M3 IC50 activity): 8.00 to 9.00
pIC50 [2]: 8.00 to 9.00

Compound: O=C(Nc1c(Cl)cncc1Cl)c1ccc(OC(F)F)c(OCC2CC2)c1 [roflumilast]
reduction of numbers of neutrophils in sputum ([4]; COPD patients, oral, over four weeks): 36%
improvement of FEV 1 [4, 5]: approximately 50 mL
reduction of exacerbation [4, 5]: about 15%

Now from value to compound, other results behind:

pKi [1]: 10.05
pIC50 ([1]; read-out: M3 IC50): 9.77
Compound: COc1ccc([C@H](Cc2c(Cl)c[n+]([O-])cc2Cl)OC(=O)c2ccc(CNC(C(=O)OC3CCN(C)CC3)c3ccccc3)cc2)cc1OC (single isomer, unassigned) [Example 7C, reference compound]
inhibition at 16 h [3]: <10%
sub-maximal inhibition Dose [inhibition at 1 h] [3]: 3 nmol/kg

pKi [1]: 9.35
pIC50 ([1]; read-out: M3 IC50): 9.05
pIC50 ([1]; read-out: M3 IC50 activity): > 9.00
pIC50 [2]: 8.00 to 9.00
Compound: COc1ccc([C@H](Cc2c(Cl)c[n+]([O-])cc2Cl)OC(=O)c2ccc(CNC(C(=O)OCC3CCN(C)CC3)c3ccccc3)cc2)cc1OC (single isomer, unassigned) [Example 7]
inhibition at 16 h [3]: >90%
sub-maximal inhibition Dose [inhibition at 1 h] [3]: 30 nmol/kg

pIC50 ([1]; read-out: M3 IC50 activity): 8.00 to 9.00
pIC50 [2]: 8.00 to 9.00
Compound: COc1ccc([C@H](Cc2c(Cl)c[n+]([O-])cc2Cl)OC(=O)c2ccc(CNC(C(=O)OCC3CCN(C)CC3)c3cccc(O)c3)cc2)cc1OC (stereo partly drawn) [Example 11, [(1S)-2-(3,5-dichloro-1-oxido-pyridin-1-ium-4-yl)-1-(3,4-dimethoxyphenyl)ethyl] 4-[[[1-(3-hydroxyphenyl)-2-[(1-methyl-4-piperidyl)-methoxy]-2-oxo-ethyl]amino]methyl]benzoate]
